Results taken from patent US8802700B2 (Vertex Pharmaceuticals Incorporated, priority 2010, dated 2014).

Molecular target: T1, ΔF508-CFTR (Homo sapiens, UniProt P13569, DEL508-508)
T1 construct: expressed in transfected cells
Assay: Membrane potential optical assay (FRET voltage-sensor dyes, VIPR), identification of potentiator compounds
Assay type: cell-based
Conditions: Table 3; assay not given; read-out: % Activity (% Efficacy, relative efficacy)
How it was run: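 Potentiator screen measured membrane potential via FRET between CC2-DMPE donor and DiSBAC2(3), read on VIPR II. Compound went in with the first addition of chloride-free gluconate bath; cells were ΔF508-CFTR-expressing NIH3T3 mouse fibroblasts, temperature-corrected at 27 °C for 24 h.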

T1 sequence (P13569 with tags, fused parts or gaps DEL508-508): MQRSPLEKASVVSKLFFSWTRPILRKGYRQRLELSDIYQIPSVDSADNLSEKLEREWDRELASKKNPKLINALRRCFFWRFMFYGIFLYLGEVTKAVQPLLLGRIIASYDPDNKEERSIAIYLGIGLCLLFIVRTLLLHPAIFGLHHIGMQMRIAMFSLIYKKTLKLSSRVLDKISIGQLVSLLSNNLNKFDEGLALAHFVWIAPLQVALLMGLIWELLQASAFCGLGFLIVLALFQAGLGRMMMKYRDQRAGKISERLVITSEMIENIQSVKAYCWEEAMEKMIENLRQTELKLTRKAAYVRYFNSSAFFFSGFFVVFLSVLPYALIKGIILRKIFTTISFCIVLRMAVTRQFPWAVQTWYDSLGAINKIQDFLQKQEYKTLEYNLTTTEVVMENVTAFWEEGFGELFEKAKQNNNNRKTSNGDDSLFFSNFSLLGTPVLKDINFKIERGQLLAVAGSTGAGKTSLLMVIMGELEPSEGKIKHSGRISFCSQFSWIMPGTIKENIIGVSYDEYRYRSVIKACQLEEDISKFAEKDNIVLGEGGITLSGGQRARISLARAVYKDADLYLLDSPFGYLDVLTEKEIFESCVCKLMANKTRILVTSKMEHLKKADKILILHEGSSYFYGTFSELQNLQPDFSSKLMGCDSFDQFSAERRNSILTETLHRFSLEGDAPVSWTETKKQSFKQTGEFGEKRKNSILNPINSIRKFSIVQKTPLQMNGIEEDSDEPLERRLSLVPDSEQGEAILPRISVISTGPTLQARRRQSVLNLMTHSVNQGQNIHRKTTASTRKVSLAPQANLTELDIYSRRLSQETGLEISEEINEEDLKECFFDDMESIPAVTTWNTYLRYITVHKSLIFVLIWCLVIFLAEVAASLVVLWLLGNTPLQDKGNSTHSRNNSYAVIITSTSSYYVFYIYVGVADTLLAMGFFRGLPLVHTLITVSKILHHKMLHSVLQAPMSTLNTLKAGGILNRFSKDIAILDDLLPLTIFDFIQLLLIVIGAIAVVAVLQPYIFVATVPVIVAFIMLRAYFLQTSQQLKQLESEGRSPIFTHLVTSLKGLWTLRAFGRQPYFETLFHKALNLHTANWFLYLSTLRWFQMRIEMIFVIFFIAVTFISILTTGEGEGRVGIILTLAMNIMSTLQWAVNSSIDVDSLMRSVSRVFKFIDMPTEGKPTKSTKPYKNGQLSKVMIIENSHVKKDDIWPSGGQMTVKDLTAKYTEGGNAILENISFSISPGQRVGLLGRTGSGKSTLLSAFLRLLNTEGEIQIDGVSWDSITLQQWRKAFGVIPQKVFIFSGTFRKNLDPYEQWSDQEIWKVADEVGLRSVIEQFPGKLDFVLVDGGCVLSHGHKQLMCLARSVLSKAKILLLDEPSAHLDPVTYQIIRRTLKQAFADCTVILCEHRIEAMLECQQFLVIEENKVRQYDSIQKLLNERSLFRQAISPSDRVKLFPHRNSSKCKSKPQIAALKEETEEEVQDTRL

Row | SMILES | Emax
1 | CC(C)c1ccccc1NC(=O)c1c[nH]c2ccccc2c1=O [Compound 36, N-(2-isopropylphenyl)-4-oxo-1H-quinoline-3-carboxamide] | 25 to 100%
2 | CC(=O)c1cccc(NC(=O)c2c[nH]c3ccccc3c2=O)c1 [Compound 328, N-(3-acetylphenyl)-4-oxo-1H-quinoline-3-carboxamide] | < 25%
3 | COc1nc2ccccc2c(OC)c1C(=O)Nc1ccccc1-c1ccccc1 [Compound 210, 2,4-dimethoxy-N-(2-phenylphenyl)-quinoline-3-carboxamide] | 25 to 100%
4 | CN(C)c1ccc(-c2ccccc2NC(=O)c2c[nH]c3ccccc3c2=O)cc1 [Compound 12, N-[2-(4-dimethylaminophenyl)phenyl]-4-oxo-1H-quinoline-3-carboxamide] | 25 to 100%
5 | O=C(Nc1ccc2c(c1)NCCCC2)c1c[nH]c2ccccc2c1=O [Compound 10, 1,4-dihydro-N-(2,3,4,5-tetrahydro-1H-benzo[b]azepin-8-yl)-4-oxoquinoline-3-carboxamide] | 25 to 100%
6 | N#Cc1cccc(-c2ccccc2NC(=O)c2c[nH]c3ccccc3c2=O)c1 [Compound 83, N-[2-(3-cyanophenyl)phenyl]-4-oxo-1H-quinoline-3-carboxamide] | 25 to 100%
7 | CCOc1ccccc1-c1ccc(NC(=O)OC(C)(C)C)cc1NC(=O)c1c[nH]c2ccccc2c1=O [Compound 114, [4-(2-ethoxyphenyl)-3-[(4-oxo-1H-quinolin-3-yl)carbonylamino]phenyl]aminoformic acid tert-butyl ester] | 25 to 100%
8 | Cc1ccc(NC(=O)c2c[nH]c3ccccc3c2=O)cc1 [Compound 31, 4-oxo-N-(p-tolyl)-1H-quinoline-3-carboxamide] | 25 to 100%
9 | Cc1cc(NC(=O)c2c[nH]c3ccccc3c2=O)ccc1F [Compound 257, N-(4-fluoro-3-methyl-phenyl)-4-oxo-1H-quinoline-3-carboxamide] | 25 to 100%
10 | CC(C)(C)c1cc(NC(=O)c2c[nH]c3ccccc3c2=O)c(O)c(C(C)(C)C)c1 [Compound 136, N-(2-hydroxy-3,5-ditert-butyl-phenyl)-4-oxo-1H-quinoline-3-carboxamide] | 25 to 100%
11 | O=C(Nc1ccccc1-c1cc(Cl)ccc1Cl)c1c[nH]c2ccccc2c1=O [Compound 213, N-[2-(2,5-dichlorophenyl)phenyl]-4-oxo-1H-quinoline-3-carboxamide] | 25 to 100%
12 | CC(=O)Nc1ccc(C(C)(C)C)c(NC(=O)c2c[nH]c3ccccc3c2=O)c1 [Compound 316, N-(5-acetylamino-2-tert-butyl-phenyl)-4-oxo-1H-quinoline-3-carboxamide] | 25 to 100%
13 | Cc1c[nH]c2cccc(NC(=O)c3c[nH]c4ccccc4c3=O)c12 [Compound 338, N-(3-methyl-1H-indol-4-yl)-4-oxo-1H-quinoline-3-carboxamide] | 25 to 100%
14 | COc1ncccc1NC(=O)c1c[nH]c2ccccc2c1=O [Compound 15, N-(2-methoxy-3-pyridyl)-4-oxo-1H-quinoline-3-carboxamide] | 25 to 100%
15 | O=C(Nc1cnccn1)c1c[nH]c2ccccc2c1=O [Compound 219, 4-oxo-N-pyrazin-2-yl-1H-quinoline-3-carboxamide] | < 25%
16 | O=C(Nc1cccc2cc[nH]c12)c1c[nH]c2ccccc2c1=O [Compound 37, N-(1H-indol-7-yl)-4-oxo-1H-quinoline-3-carboxamide] | 25 to 100%
17 | O=C(Nc1cccc(Cc2ccccc2)c1)c1c[nH]c2ccccc2c1=O [Compound 389, N-(3-benzylphenyl)-4-oxo-1H-quinoline-3-carboxamide] | 25 to 100%
18 | Cc1ccc2c(c1)c(=O)c(C(=O)Nc1ccccc1-c1ccccc1)cn2C [Compound 128, 1,6-dimethyl-4-oxo-N-(2-phenylphenyl)-1H-quinoline-3-carboxamide] | < 25%
19 | O=C(Nc1ccccc1-c1ccccc1Oc1ccccc1)c1c[nH]c2ccccc2c1=O [Compound 247, 4-oxo-N-[2-(2-phenoxyphenyl)phenyl]-1H-quinoline-3-carboxamide] | 25 to 100%
20 | Cc1csc(-c2ccccc2NC(=O)c2c[nH]c3ccccc3c2=O)c1 [Compound 151, N-[2-(4-methyl-2-thienyl)phenyl]-4-oxo-1H-quinoline-3-carboxamide] | 25 to 100%
21 | CCOC(=O)Nc1cc(NC(=O)c2c[nH]c3ccccc3c2=O)ccc1C(C)C [Compound 225, [2-isopropyl-5-[(4-oxo-1H-quinolin-3-yl)carbonylamino]phenyl]aminoformic acid ethyl ester] | 25 to 100%
22 | O=C(Nc1ccc2cc[nH]c2c1)c1cnc2c(F)cc(F)cc2c1O [Compound 377, 6,8-difluoro-4-hydroxy-N-(1H-indol-6-yl)quinoline-3-carboxamide] | 25 to 100%
23 | O=C(Nc1ccc2c(c1)NCC2)c1c[nH]c2ccccc2c1=O [Compound 258, N-Indolin-6-yl-4-oxo-1H-quinoline-3-carboxamide] | 25 to 100%
24 | CC1(C)CNc2cc(NC(=O)c3c[nH]c4ccccc4c3=O)ccc21 [Compound 386, N-(3,3-dimethylindolin-6-yl)-4-oxo-1H-quinoline-3-carboxamide] | 25 to 100%
25 | O=C(Nc1ccccc1-c1cccc(OC(F)(F)F)c1)c1c[nH]c2ccccc2c1=O [Compound 253, 4-oxo-N-[2-[3-(trifluoromethoxy)phenyl]phenyl]-1H-quinoline-3-carboxamide] | 25 to 100%

More lines, now with the values ahead:

Row | Emax | SMILES
26 | 25 to 100% | Cc1ccc(C(F)(F)F)cc1NC(=O)c1c[nH]c2cccc(O)c2c1=O [Compound 676, 5-hydroxy-N-[2-methyl-5-(trifluoromethyl)phenyl]-4-oxo-1H-quinoline-3-carboxamide]
27 | 25 to 100% | CC(C)(C)c1cc(C(C)(C)C)c(NC(=O)c2c[nH]c3c(Cl)cccc3c2=O)cc1O [Compound 663, 8-chloro-N-(5-hydroxy-2,4-ditert-butyl-phenyl)-4-oxo-1H-quinoline-3-carboxamide]
28 | > 100% | CC(C)(C)c1ccc(NC(=O)c2c[nH]c3ccccc3c2=O)c(C(C)(C)C)c1O [Compound 594, N-(3-hydroxy-2,4-ditert-butyl-phenyl)-4-oxo-1H-quinoline-3-carboxamide]
29 | 25 to 100% | CC(C)(C)c1c[nH]c2cc(NC(=O)c3c[nH]c4ccccc4c3=O)ccc12 [Compound 478, 4-oxo-N-(3-tert-butyl-1H-indol-6-yl)-1H-quinoline-3-carboxamide]
30 | 25 to 100% | CC1(c2ccc(NC(=O)c3c[nH]c4ccccc4c3=O)cc2)COC1 [Compound 523, N-[4-(3-methyloxetan-3-yl)phenyl]-4-oxo-1H-quinoline-3-carboxamide]
31 | 25 to 100% | COc1cccc(OC)c1-c1cc2cc[nH]c2cc1NC(=O)c1c[nH]c2ccccc2c1=O [Compound 404, N-[5-(2,6-dimethoxyphenyl)-1H-indol-6-yl]-4-oxo-1H-quinoline-3-carboxamide]
32 | 25 to 100% | O=C(Nc1cccc(SC(F)(F)F)c1)c1c[nH]c2ccccc2c1=O [Compound 456, 4-oxo-N-[3-(trifluoromethylsulfanyl)phenyl]-1H-quinoline-3-carboxamide]
33 | 25 to 100% | COC(=O)c1cc(NC(=O)c2c[nH]c3ccccc3c2=O)ccc1C(C)(C)C [Compound 444, 5-[(4-oxo-1H-quinolin-3-yl)carbonylamino]-2-tert-butyl-benzoic acid methyl ester]
34 | 25 to 100% | O=C(Nc1ccc(N2CC[C@H](O)C2)cc1C(F)(F)F)c1c[nH]c2ccccc2c1=O [Compound 655, (S)-N-(4-(3-hydroxypyrrolidin-1-yl)-2-(trifluoromethyl)phenyl)-4-oxo-1,4-dihydroquinoline-3-carboxamide]
35 | 25 to 100% | Cc1cccc(NC(=O)c2c[nH]c3ccccc3c2=O)c1 [Compound 449, N-(m-tolyl)-4-oxo-1H-quinoline-3-carboxamide]
36 | 25 to 100% | COc1ccc(-c2ccccc2NC(=O)c2c[nH]c3ccccc3c2=O)cc1OC [Compound 436, N-[2-(3,4-dimethoxyphenyl)phenyl]-4-oxo-1H-quinoline-3-carboxamide]
37 | 25 to 100% | COC(=O)c1c(NC(=O)c2c[nH]c3ccccc3c2=O)csc1C(C)(C)C [Compound 690, methyl 4-[(4-oxo-1H-quinolin-3-yl)carbonylamino]-2-tert-butyl-thiophene-3-carboxylate]
38 | < 25% | CCc1cccc2c(=O)c(C(=O)Nc3ccc(C(C)C)cc3C(F)(F)F)c[nH]c12 [Compound 682, 8-ethyl-N-[4-isopropyl-2-(trifluoromethyl)phenyl]-4-oxo-1H-quinoline-3-carboxamide]
39 | 25 to 100% | CN(c1ccc(F)cc1)S(=O)(=O)c1ccc2[nH]cc(C(=O)Nc3cc4[nH]ccc4cc3C(C)(C)C)c(=O)c2c1 [Compound 406, 6-[(4-fluorophenyl)-methyl-sulfamoyl]-4-oxo-N-(5-tert-butyl-1H-indol-6-yl)-1H-quinoline-3-carboxamide]
40 | 25 to 100% | COc1cc(NC(=O)c2c[nH]c3cccc(O)c3c2=O)cc(C(F)(F)F)c1 [Compound 502, 5-hydroxy-N-[3-methoxy-5-(trifluoromethyl)phenyl]-4-oxo-1H-quinoline-3-carboxamide]
41 | 25 to 100% | Cc1cc(C(C)(C)C)c(O)cc1NC(=O)c1c[nH]c2ccccc2c1=O [Compound 518, N-(5-hydroxy-2-methyl-4-tert-butyl-phenyl)-4-oxo-1H-quinoline-3-carboxamide]
42 | 25 to 100% | CCOC(=O)[C@H]1CCCN(c2ccc(NC(=O)c3c[nH]c4ccccc4c3=O)c(C(F)(F)F)c2)C1 [Compound 660, (S)-ethyl 1-(4-(4-oxo-1,4-dihydroquinoline-3-carboxamido)-3-(trifluoromethyl)phenyl)piperidine-3-carboxylate]
43 | 25 to 100% | COc1cc(NC(=O)c2c[nH]c3ccccc3c2=O)ccc1-n1c(C)ccc1C [Compound 560, N-[4-(2,5-dimethylpyrrol-1-yl)-3-methoxy-phenyl]-4-oxo-1H-quinoline-3-carboxamide]
44 | 25 to 100% | CC(C)(C)c1cc(C#N)c(NC(=O)c2c[nH]c3ccccc3c2=O)cc1O [Compound 476, N-(4-tert-Butyl-2-cyano-5-hydroxyphenyl)-1,4-dihydro-4-oxoquinoline-3-carboxamide]
